Laboratory results taken from PubChem BioAssay (NCI).
Where “and” joins values, the source holds several entries; their conditions need not be identical. Identical values can stand only once.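 Step 1: Grow cells in 96-well plates. Step 2: Expose to compound for 48 hours at 5 concentrations. Step 3: Interpolate endpoints linearly; if unreached, use highest concentration. GI50 marks 50% less growth. Definition used: TGI = concentration required for complete inhibition of growth.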

How the values were obtained:
Assay in all cases: inhibition of tumour cell growth, NCI panel, 48 h
[1] = system: NCI-H226 lung
[2] = system: HS 578T breast
[3] = system: TK-10 renal
[4] = system: IGROV1 ovarian
[5] = system: HCT-116 colon
[6] = system: LOX IMVI melanoma
[7] = system: RPMI-8226 leukemia
[8] = system: MALME-3M melanoma
[9] = system: NCI/ADR-RES ovarian
[10] = system: MDA-MB-231 breast

Row | SMILES | GI50 [1] | TGI [1] | GI50 [2] | TGI [2] | GI50 [3] | TGI [3] | GI50 [4] | TGI [4] | GI50 [5] | TGI [5] | GI50 [6] | TGI [6] | GI50 [7] | TGI [7] | GI50 [8] | TGI [8] | GI50 [9] | TGI [9] | GI50 [10] | TGI [10]
1 | CC1(C)OCCn2c1nc1c(N3CCOCC3)nc(-c3cnc(N)nc3)nc12 | 0.227 µM | 8.75 µM | 0.135 µM | 0.981 µM | 0.109 µM | 0.676 µM | 0.0622 µM | 0.432 µM | 0.337 µM | > 100 µM | 0.265 µM | > 27.4 µM | 2.14 µM | 12.5 µM | 0.0974 µM | 0.6 µM | 0.508 µM | > 100 µM | 0.457 µM | > 89.2 µM
2 | Cn1cc(C2=C(c3cn(C)c4cc(C(N)=O)ccc34)C(=O)NC2=O)c2ccccc21 | 4.29 µM | > 21.7 µM | 0.687 µM | 4.02 µM | 3.76 µM | > 21 µM | 2.48 µM | > 19.7 µM | 1.08 µM | > 21.6 µM | 1.76 µM | > 25 µM | 1.65 µM | > 20.8 µM | 4.2 µM | > 25 µM | 1.16 µM | > 25 µM | 2.88 µM | 19.9 µM
3 | Cc1ccc(-c2nc3ccc([N+](=O)[O-])cc3[nH]2)cc1 |  | > 100 µM |  | > 100 µM |  | > 100 µM |  | > 100 µM |  | > 100 µM |  | > 100 µM |  | > 100 µM |  | > 100 µM |  | > 100 µM |  | > 100 µM
4 | CC(C)=CCc1cc(O)cc2c1OC(C=C(C)C)C1=C2C(=O)C2=C(NCCS2(=O)=O)C1=O (centres undefined) | 2.06 µM | 5.34 µM | 3.48 µM | 11.9 µM | 5.51 µM | 16.2 µM | 2.15 µM | 5.43 µM | 0.611 µM | 2.45 µM | 2.04 µM | 5 µM | 4.42 µM | 14 µM | 0.159 µM | 0.834 µM | > 16.7 µM | > 16.7 µM | 0.527 µM | 5.09 µM
5 | CS(=O)(=O)CCCn1c(=O)c(Oc2ccc(F)cc2F)cc2cnc(NC3CCOCC3)nc21 | > 25 µM | > 25 µM | > 25 µM | > 25 µM | > 25 µM | > 25 µM | > 25 µM | > 25 µM | > 25 µM | > 25 µM | > 25 µM | > 25 µM | > 25 µM | > 25 µM | > 25 µM | > 25 µM | > 25 µM | > 25 µM | > 25 µM | > 25 µM
6 | CC(=O)c1cc2c(o1)C(=O)c1ccccc1C2=O | 0.226 µM and 0.212 µM | 0.5 µM and 0.472 µM | 0.292 µM and 0.295 µM | 0.771 µM and 0.806 µM | 0.248 µM and 1.4 µM | 0.595 µM and 2.9 µM | 0.644 µM and 0.409 µM | 1.63 µM and 1.56 µM | 0.226 µM and 0.267 µM | 0.544 µM and 0.805 µM | 0.121 µM and 0.187 µM | 0.323 µM and 0.438 µM | 0.731 µM and 0.917 µM | 1.8 µM and 3.86 µM | 0.18 µM and 0.143 µM | 0.332 µM and 0.281 µM | 0.341 µM and 0.329 µM | 1.81 µM and 1.47 µM | 0.765 µM and 1.66 µM | 4.29 µM and 6.88 µM
7 | Cc1csc(Nc2nc(-c3cccc(Br)c3)nc(C(Cl)(Cl)Cl)n2)n1 | > 100 µM | > 100 µM | 2.94 µM | > 100 µM | 2.25 µM | > 100 µM | > 100 µM | > 100 µM | 3.05 µM | > 100 µM | > 100 µM | > 100 µM | 2.19 µM | > 100 µM | > 100 µM | > 100 µM | 5.22 µM | > 100 µM | 2.78 µM | > 100 µM
8 | CC(CC(=O)O)C(C(=O)O)C(=O)O (centres undefined) |  | > 100 µM |  | > 100 µM |  | > 100 µM |  | > 100 µM |  | > 100 µM |  | > 100 µM |  | > 100 µM |  | > 100 µM |  | > 100 µM |  | > 100 µM
9 | N=c1ccn2c(n1)OC1C(O)C(CO)OC12 (centres undefined) | 120 µM and > 79 µM | > 719 µM | > 100 µM | > 1000 µM |  | > 1000 µM | 4.02 µM | > 1000 µM | 0.164 µM | > 1000 µM | 0.497 µM | 98.9 µM and > 100 µM | 3.97 µM | > 1000 µM | 4.22 µM | 78.5 µM and > 100 µM | 0.659 µM | > 753 µM | > 100 µM | > 1000 µM
10 | N#C/C=C(\c1ccc([N+](=O)[O-])cc1)n1nnc2cc(Cl)c(Cl)cc21 | 3 µM | 17.1 µM | 2.39 µM | 8.94 µM | 2.6 µM | 4.16 µM | 1.82 µM | 4.08 µM | 1.34 µM | 2.7 µM | 1.67 µM | 3.19 µM | 0.604 µM | 2.91 µM | 1.7 µM | 4.18 µM | 2.54 µM | 8.79 µM | 2.34 µM | 8.66 µM
11 | Cc1cn2c(/C=C3\C(=O)Nc4ccc(O)cc43)c(-c3ccc(Cl)cc3)nc2s1 | 18.5 µM | 51 µM | 21.1 µM | 84.1 µM | 18.7 µM | 52.2 µM | 5.56 µM | 23.9 µM | 15.6 µM | 42.5 µM | 21.3 µM | > 100 µM | 34.5 µM | > 100 µM | 14.3 µM | 42 µM | 21.5 µM | > 100 µM | 14.5 µM | 54.2 µM
12 | O=C(c1ccc(F)c(F)c1Nc1ccc(I)cc1F)N1CC(O)([C@@H]2CCCCN2)C1 | 1.91 µM and 1.24 µM | 23.3 µM and > 10 µM | 5.05 µM and > 6.42 µM | 29.3 µM and > 10 µM | 0.271 µM | 14.8 µM and > 10 µM | < 0.0461 µM and 0.125 µM | 13.8 µM and > 10 µM | < 0.0295 µM and 0.0851 µM | 11.9 µM and > 10 µM | 0.0321 µM and 0.0191 µM | 2.15 µM and 1.7 µM | 0.992 µM and 3.1 µM | 18.2 µM and > 10 µM | < 0.01 µM and 0.00181 µM | 0.0133 µM | 6.56 µM and > 7.36 µM | 21.5 µM and > 10 µM | < 0.0254 µM and 0.0955 µM | 4.18 µM and > 9.06 µM
13 | Cc1nc2cnc(N)c(C#Cc3cncc(C(=O)Nc4ccc(CN5CCN(C)CC5)c(C(F)(F)F)c4)c3)c2nc1C | 0.188 µM | 2.61 µM | 0.541 µM | 5.66 µM | 0.496 µM | 3.2 µM | 0.266 µM | 1.21 µM | 0.219 µM | 1.57 µM | 0.101 µM | 1.05 µM | 1.65 µM | 8.51 µM | 0.0339 µM | 0.163 µM | 7.56 µM | 23.8 µM | 0.209 µM | 2.13 µM
